Patent US20110053949A1, “4-[3-(ARYLOXY)BENZYLIDENE]-3-METHYL PIPERIDINE ARYL CARBOXAMIDE COMPOUNDS USEFUL AS FAAH INHIBITORS” (PFIZER INC., priority 2008, published 2011)

Target: T1, Human FAAH (Homo sapiens, UniProt O00519)
T1 construct: made in house
T1 sequence (O00519 1-579): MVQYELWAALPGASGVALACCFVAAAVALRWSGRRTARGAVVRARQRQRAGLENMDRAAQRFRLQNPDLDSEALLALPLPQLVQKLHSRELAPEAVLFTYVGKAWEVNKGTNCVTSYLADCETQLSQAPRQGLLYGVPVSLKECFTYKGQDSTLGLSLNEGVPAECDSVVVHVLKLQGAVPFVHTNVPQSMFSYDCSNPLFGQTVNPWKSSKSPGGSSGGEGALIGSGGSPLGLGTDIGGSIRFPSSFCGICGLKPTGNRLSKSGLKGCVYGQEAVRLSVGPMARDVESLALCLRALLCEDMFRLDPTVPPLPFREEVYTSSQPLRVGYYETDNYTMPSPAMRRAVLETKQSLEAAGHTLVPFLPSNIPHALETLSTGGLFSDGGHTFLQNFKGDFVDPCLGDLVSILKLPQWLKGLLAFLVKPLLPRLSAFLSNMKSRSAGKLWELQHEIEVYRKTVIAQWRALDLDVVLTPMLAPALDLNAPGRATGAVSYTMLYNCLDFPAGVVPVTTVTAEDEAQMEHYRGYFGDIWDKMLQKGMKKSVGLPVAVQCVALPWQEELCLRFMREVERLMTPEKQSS
Experiment: FAAH enzyme assay (glutamate dehydrogenase coupled, oleamide substrate), irreversible inhibition kinetics
Type: biochemical
Conditions: human FAAH, 30° C., pH 7.4
Experimental: A FAAH enzyme assay may be carried out as described in WO2006/085196 in 384-well clear polystyrene plates in a total volume of 50 μl per well. All percents are by volume. To each well was placed the reaction mixture (40 μl) containing 1-4 nM FAAH, 50 mM NaPi, pH 7.4, 3 mM α-ketoglutarate, 0.15 mM NADH, 7.5 U/ml glutamate dehydrogenase, 2 mM ADP, 1 mM EDTA, and 0.1% Triton X-100 (The concentration shown for each component is the final concentration in the assay). To this mixture was added 5 μl of a compound of Examples 1 to 20 at various concentrations prepared in 50% DMSO (or 5 μl 50% DMSO for controls). This was immediately followed by the addition of 5 μl oleamide (500 μM) dissolved in 75% EtOH/25% DMSO and the reaction mixture is mixed for 1.5 min. The final concentrations of DMSO and EtOH in the assay were each 7.5%. The reactions was then incubated at 30° C. and the absorbance at 340 nm was collected over a period of 90 min with readings taken in 30-second intervals using SpectraMax Plus^384 Microplate Spectrophotometer (Molecular Devices, Sunnyvale, Calif.). Human FAAH used in the assay was prepared as described in the patent application WO 2006/067613. The purity of the enzyme used was greater than 98% based on an analysis by SDS-polyacrylamide gel electrophoresis followed by Coomassie Blue staining.
Initial velocity data (V) is obtained from the slopes of the initial progressive curves. They are plotted as a function of substrate concentration and fit to the Michaelis-Menten equation (1) using Prism (GraphPad Software, Inc., San Diego, Calif.) software to obtain Km and Vmax values.
To obtain potencies of irreversible inhibitors, progressive curves consistent with first order inhibition kinetics (two-step irreversible inhibition mechanism) are fit to equation (2) by nonlinear least squares regressions to determine kobs values at each inhibitor concentration, where [P]t is the absorbance at time t, V0 is a constant related to the steady state rate of the uninhibited reaction, and kobs is the first order rate constant for enzyme inactivation. The inhibitor dissociation constant (Ki) and the first order rate
(2) constant of enzyme inactivation at infinite inhibitor concentration (kinact) are then obtained by fitting the kobs vs. [I] curves to equation (3).

| Compound | hFAAH Kinact/Ki |
| --- | --- |
| CC1CN(C(=O)Nc2cccnn2)CC/C1=C\c1cccc(Oc2ccc(C(F)(F)F)cn2)c1 (single isomer, unassigned) [Example 1, (4E)-3-methyl-N-pyridazin-3-yl-4-(3-{[5-(trifluoromethyl)pyridin-2-yl]oxy}benzylidene)piperidine-1-carboxamide] | 4590 M⁻¹ s⁻¹ |
| CC1CN(C(=O)Nc2cccnn2)CC/C1=C\c1cccc(Oc2ccc(C(F)(F)F)cn2)c1 (single isomer, unassigned) [Example 2, (4E)-3-methyl-N-pyridazin-3-yl-4-(3-{[5-(trifluoromethyl)pyridin-2-yl]oxy}benzylidene)piperidine-1-carboxamide] | 254 M⁻¹ s⁻¹ |
| CC1CN(C(=O)Nc2cccnc2)CC/C1=C\c1cccc(Oc2ncc(C(F)(F)F)cn2)c1 (single isomer, unassigned) [Example 16, (4E)-3-methyl-N-pyridin-3-yl-4-(3-{[5-(trifluoromethyl)pyrimidin-2-yl]oxy}benzylidene)piperidine-1-carboxamide] | 6930 M⁻¹ s⁻¹ |
| CC1CN(C(=O)Nc2cccnc2)CC/C1=C\c1cccc(Oc2ncc(C(F)(F)F)cn2)c1 (single isomer, unassigned) [Example 17, (4E)-3-methyl-N-pyridin-3-yl-4-(3-{[5-(trifluoromethyl)pyrimidin-2-yl]oxy}benzylidene)piperidine-1-carboxamide] | <15.5 M⁻¹ s⁻¹ |
| (4E)-N-1,2-benzisoxazol-3-yl-3-methyl-4-(3-{[5-(trifluoromethyl)pyridin-2-yl]oxy}benzylidene)piperidine-1-carboxamide [Example 13] | 733 M⁻¹ s⁻¹ |
| (4E)-N-(6-methoxypyridazin-3-yl)-3-methyl-4-(3-{[5-(trifluoromethyl)pyridin-2-yl]oxy}benzylidene)piperidine-1-carboxamide [Example 12] | 2500 M⁻¹ s⁻¹ |

Further lines, results first:

| hFAAH Kinact/Ki | Compound |
| --- | --- |
| 4890 M⁻¹ s⁻¹ | CC1CN(C(=O)Nc2cccnc2)CC/C1=C\c1cccc(Oc2ccc(C(F)(F)F)cn2)c1 (single isomer, unassigned) [Example 3, (4E)-3-methyl-N-pyridin-3-yl-4-(3-{[5-(trifluoromethyl)pyridin-2-yl]oxy}benzylidene)piperidine-1-carboxamide] |
| 71.4 M⁻¹ s⁻¹ | CC1CN(C(=O)Nc2cccnc2)CC/C1=C\c1cccc(Oc2ccc(C(F)(F)F)cn2)c1 (single isomer, unassigned) [Example 4, (4E)-3-methyl-N-pyridin-3-yl-4-(3-{[5-(trifluoromethyl)pyridin-2-yl]oxy}benzylidene)piperidine-1-carboxamide] |

Same assay, conditions: pH 7.4, human FAAH, 30° C., read-out: hFAAH Kinact/Ki

| Compound | kinact/KI |
| --- | --- |
| CC1CN(C(=O)Nc2cccnc2)CC/C1=C\c1cccc(Oc2ccc(Br)cn2)c1 (racemic) [Example 14, (4E)-4-{3-[(5-bromopyridin-2-yl)oxy]benzylidene}-3-methyl-N-pyridin-3-ylpiperidine-1-carboxamide] | 747 M⁻¹ s⁻¹ |
| CC1CN(C(=O)Nc2cccnc2)CC/C1=C\c1cccc(Oc2ccc(Cl)cn2)c1 (racemic) [Example 15, (4E)-4-{3-[(5-chloropyridin-2-yl)oxy]benzylidene}-3-methyl-N-pyridin-3-ylpiperidine-1-carboxamide] | 4170 M⁻¹ s⁻¹ |
| CC1CN(C(=O)Nc2ccc(C#N)nc2)CC/C1=C\c1cccc(Oc2ccc(C(F)(F)F)cn2)c1 (single isomer, unassigned) [Example 8, (4E)-N-(6-cyanopyridin-3-yl)-3-methyl-4-(3-{[5-(trifluoromethyl)pyridin-2-yl]oxy}benzylidene)piperidine-1-carboxamide] | 2460 M⁻¹ s⁻¹ |
| COc1cnc(NC(=O)N2CC/C(=C\c3cccc(Oc4ccc(C(F)(F)F)cn4)c3)C(C)C2)cn1 (single isomer, unassigned) [Example 9, (4E)-N-(5-methoxypyrazin-2-yl)-3-methyl-4-(3-{[5-(trifluoromethyl)pyridin-2-yl]oxy}benzylidene)piperidine-1-carboxamide] | 2390 M⁻¹ s⁻¹ |

The next lines start with the values.

| kinact/KI | Compound |
| --- | --- |
| 2850 M⁻¹ s⁻¹ | COc1ccc(NC(=O)N2CC/C(=C\c3cccc(Oc4ccc(C(F)(F)F)cn4)c3)C(C)C2)cn1 (single isomer, unassigned) [Example 5, (4E)-N-(6-methoxypyridin-3-yl)-3-methyl-4-(3-{[5-(trifluoromethyl)pyridin-2-yl]oxy}benzylidene)piperidine-1-carboxamide] |
| 1420 M⁻¹ s⁻¹ | CC1CN(C(=O)Nc2cnc3[nH]ccc3c2)CC/C1=C\c1cccc(Oc2ccc(C(F)(F)F)cn2)c1 (single isomer, unassigned) [Example 6, (4E)-3-methyl-N-1H-pyrrolo[2,3-b]pyridin-5-yl-4-(3-{[5-(trifluoromethyl)pyridin-2-yl]oxy}benzylidene)piperidine-1-carboxamide] |
| 1290 M⁻¹ s⁻¹ | Cc1cncc(NC(=O)N2CC/C(=C\c3cccc(Oc4ccc(C(F)(F)F)cn4)c3)C(C)C2)c1 (single isomer, unassigned) [Example 7, (4E)-3-methyl-N-(5-methylpyridin-3-yl)-4-(3-{[5-(trifluoromethyl)pyridin-2-yl]oxy}benzylidene)piperidine-1-carboxamide] |
| 3390 M⁻¹ s⁻¹ | Cc1cnc(NC(=O)N2CC/C(=C\c3cccc(Oc4ccc(C(F)(F)F)cn4)c3)C(C)C2)cn1 (single isomer, unassigned) [Example 10, (4E)-3-methyl-N-(5-methylpyrazin-2-yl)-4-(3-{[5-(trifluoromethyl)pyridin-2-yl]oxy}benzylidene)piperidine-1-carboxamide] |
| 1880 M⁻¹ s⁻¹ | COc1cncc(NC(=O)N2CC/C(=C\c3cccc(Oc4ccc(C(F)(F)F)cn4)c3)C(C)C2)n1 (single isomer, unassigned) [Example 11, (4E)-N-(6-methoxypyrazin-2-yl)-3-methyl-4-(3-{[5-(trifluoromethyl)pyridin-2-yl]oxy}benzylidene)piperidine-1-carboxamide] |

Target: T2, rFAAH (Rattus norvegicus, UniProt P97612)
T2 sequence (P97612 1-579): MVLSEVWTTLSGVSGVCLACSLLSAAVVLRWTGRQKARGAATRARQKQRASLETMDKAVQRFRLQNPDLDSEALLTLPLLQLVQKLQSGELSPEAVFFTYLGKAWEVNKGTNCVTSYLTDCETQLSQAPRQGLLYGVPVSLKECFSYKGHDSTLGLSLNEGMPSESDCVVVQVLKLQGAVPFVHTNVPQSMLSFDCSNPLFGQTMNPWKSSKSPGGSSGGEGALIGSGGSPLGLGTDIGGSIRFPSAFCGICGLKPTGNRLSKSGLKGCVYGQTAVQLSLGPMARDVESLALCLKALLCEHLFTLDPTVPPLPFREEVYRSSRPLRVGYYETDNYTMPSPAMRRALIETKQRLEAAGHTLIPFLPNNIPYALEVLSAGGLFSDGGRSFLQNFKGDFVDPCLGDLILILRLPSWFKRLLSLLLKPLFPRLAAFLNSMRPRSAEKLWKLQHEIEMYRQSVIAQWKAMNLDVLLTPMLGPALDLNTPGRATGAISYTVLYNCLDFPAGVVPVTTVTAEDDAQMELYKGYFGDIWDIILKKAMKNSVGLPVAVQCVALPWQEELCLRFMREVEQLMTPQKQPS
Experiment: FAAH_KINACTR rFAAH kobs/I
Type: biochemical
Conditions: further data table, substances given by IUPAC name only

| FAAH_KINACTR:rFAAH:kobs/I | Compound |
| --- | --- |
| 3730 | CC1CN(C(=O)Nc2cccnn2)CC/C1=C\c1cccc(Oc2ccc(C(F)(F)F)cn2)c1 (stereo not drawn) [(4E)-3-methyl-N-pyridazin-3-yl-4-(3-{[5-(trifluoromethyl)pyridin-2-yl]oxy}benzylidene)piperidine-1-carboxamide] |
